Test results: BindingDB's records for patent US20240287037 (Plexium, 2024)

Molecular target: Protein cereblon (Homo sapiens, UniProt Q96SW2)
Assay: Bioluminescence Resonance Energy Transfer (BRET)
Method: 2 uL of 10 uM CRBN tracer (diluted 1:5 in Tracer Dilution Buffer) was added to each well. Plates were centrifuged at 320 g for 1 min at room temperature. […] Plates were shaken for 2 minutes on a microplate shaker to mix compounds. Plates were centrifuged at 320 g for 1 min at room temperature, and subsequently incubated for 2 hours at 37 C.After incubation, plates were allowed to cool to room temperature for 15 minutes. […] Plates were read on a CLARIOstar microplate reader (BMG LabTech), measuring at 450 nm (donor emission) and 610 nm (acceptor emission).

Protein cereblon, sequence (Q96SW2 whole entry): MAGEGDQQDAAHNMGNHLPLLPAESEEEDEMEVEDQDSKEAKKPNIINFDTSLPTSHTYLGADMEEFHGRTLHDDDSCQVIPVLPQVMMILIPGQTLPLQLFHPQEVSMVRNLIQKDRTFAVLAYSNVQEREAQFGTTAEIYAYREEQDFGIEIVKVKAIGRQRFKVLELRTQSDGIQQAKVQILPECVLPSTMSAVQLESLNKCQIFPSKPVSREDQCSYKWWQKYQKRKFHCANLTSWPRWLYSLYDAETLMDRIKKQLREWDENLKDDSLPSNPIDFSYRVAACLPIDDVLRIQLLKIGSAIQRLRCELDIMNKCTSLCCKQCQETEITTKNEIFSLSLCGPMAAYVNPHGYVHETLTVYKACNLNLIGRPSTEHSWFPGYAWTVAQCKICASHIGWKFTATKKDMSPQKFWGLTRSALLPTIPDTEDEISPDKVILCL

SMILES: N#CC1(C2CN([C@H]3CCCC[C@@H]3Oc3ccc4c(c3)CN(C3CCC(=O)NC3=O)C4=O)C2)CCC1 (stereo partly specified) [US20240287037, Example 23]
- EC50: 28 nM
